Test results as given in the NIST ThermoML archive (doi:10.1021/acs.jced.7b00494).

Experiment: mn = molality of the nth substance listed, in mol/kg
Conditions: 99.6 kPa, Liquid; for kinematic viscosity: Capillary tube (Ostwald / Ubbelohde) method; for mass density: Vibrating tube method

CNC(C)=O [N-methylacetamide] + [Ca+2].[Cl-].[Cl-]
Conditions	kinematic viscosity, 308.15 K [m2/s]	kinematic viscosity, 313.15 K [m2/s]	kinematic viscosity, 318.15 K [m2/s]	kinematic viscosity, 323.15 K [m2/s]	kinematic viscosity, 328.15 K [m2/s]	mass density, 308.15 K [kg/m3]	mass density, 313.15 K [kg/m3]	mass density, 318.15 K [kg/m3]	mass density, 323.15 K [kg/m3]	mass density, 328.15 K [kg/m3]
m2 = 0	3.79e-06	3.35e-06	2.99e-06	2.68e-06	2.42e-06	945.85	941.63	937.44	933.24	929.07
m2 = 0.00398	3.81e-06	3.38e-06	3.02e-06	2.69e-06	2.44e-06	946.1	941.91	937.73	933.54	929.34
m2 = 0.01042	3.83e-06	3.41e-06	3.04e-06	2.72e-06	2.46e-06	946.61	942.38	938.2	933.97	929.79
m2 = 0.04232	4.04e-06	3.59e-06	3.19e-06	2.86e-06	2.58e-06	948.77	944.56	940.39	936.24	932.07
m2 = 0.05605	4.13e-06	3.67e-06	3.25e-06	2.92e-06	2.63e-06	949.67	945.49	941.34	937.18	933.03
m2 = 0.08536	4.34e-06	3.83e-06	3.4e-06	3.05e-06	2.74e-06	951.77	947.59	943.45	939.13	934.99
m2 = 0.1022	4.47e-06	3.95e-06	3.49e-06	3.13e-06	2.81e-06	953.01	948.87	944.7	940.52	936.21
m2 = 0.1314	4.7e-06	4.15e-06	3.67e-06	3.28e-06	2.95e-06	954.97	950.79	946.62	942.51	938.24
m2 = 0.1539	4.89e-06	4.31e-06	3.8e-06	3.39e-06	3.05e-06	956.57	952.41	948.18	943.99	939.85
m2 = 0.1613	4.95e-06	4.35e-06	3.85e-06	3.43e-06	3.09e-06	957.09	952.96	948.73	944.54	940.37
m2 = 0.1719	5.03e-06	4.42e-06	3.9e-06	3.48e-06	3.13e-06	957.84	953.69	949.44	945.4	941.17
m2 = 0.1998	5.26e-06	4.63e-06	4.08e-06	3.64e-06	3.27e-06	959.8	955.68	951.58	947.31	943.19
m2 = 0.2219	5.46e-06	4.8e-06	4.24e-06	3.77e-06	3.39e-06	961.27	957.26	953.04	948.77	944.71
m2 = 0.2578	5.79e-06	5.1e-06	4.5e-06	4e-06	3.58e-06	964	959.75	955.68	951.4	947.13
m2 = 0.3546	6.92e-06	6.01e-06	5.32e-06	4.71e-06	4.2e-06	970.82	966.61	962.4	958.22	953.99
